According to US4548922A, “Drug administration” (Beth Israel Hospital, priority 1983, dated 1985):

test: k' factor value (hydrophobicity) by high-performance liquid column chromatography on octadecylsilane column; assay type: physicochemical; details: unconjugated steroid; 75% methanol in water, apparent pH 5.0, octadecylsilane column
Method: Preferably the steroid used in the invention is characterized in that the unconjugated derivative of the steroid is retained on a hydrophobic column for a length of time sufficient to produce a k' factor value of at least 7, the k' factor value being obtained by subjecting a monomeric solution of 1 mg/ml of such steroid derivative to high-performance liquid column chromatography at 3,000 psi, using a 250×4.6 mm column having octadecylsilane-coated 5 μm micro silica particles as the stationary phase and a mobile phase, delivered at 1.0 ml/min., consisting of 75% methanol in water, v/v, buffered with 0.005 M KH2 PO4 /H3 PO4 to give an apparent pH value, as measured using a glass electrode, of 5.0, the k' factor value being defined by k'=(tr -t0)/t0, where t0 is the retention time in the column of the solvent front and tr is the retention time in the column of the steroid derivative as measured by obtaining the elution profile of the steroid derivative by absorbance at 210 nm.
The structure of the steroid molecule affects its chemical properties and thus its functioning as a drug transporting molecule. We believe that all of the steroid molecules used in the invention facilitate transport by self-associating to form reversed micelles within the membrane across which the drug is being transported; these reversed micelles, it is believed, function as pores, allowing the drug to pass through. A measure of the ability of a given steroid molecule's ability to form such reversed micelles is the hydrophobicity of the unconjugated form of the molecule, a property which can be quantified using the k' factor value, which is computed by observing the steroid's retention time in a high-performance liquid chromatography (HPLC) column under the conditions described above. As mentioned above, the k' factor value of the unconjugated derivative of the steroid should be at least 7 for the steroid to be suitable in the therapeutic compositions of the invention.

First: CC(=O)O[C@@H]1[C@H]2[C@H](C)[C@H](O)CC[C@]2(C)[C@@H]2CC[C@H]3/C(=C(\CCC=C(C)C)C(=O)O)[C@@H](OC(C)=O)C[C@]3(C)[C@@]2(C)[C@H]1O [cephalosporin P1]
Second: CC(=O)O[C@H]1C[C@@]2(C)[C@@H](CC[C@H]3[C@@]4(C)C=CC(=O)[C@@H](C)[C@@H]4[C@H](OC(C)=O)C(=O)[C@@]32C)/C1=C(\CCC=C(C)C)C(=O)O [helvolic acid]
The “k' factor value” of the first is higher: 9.5 for the first, 4.7 for the second.

In the case of `C[C@H](CCC(=O)O)[C@H]1CC[C@H]2[C@@H]3[C@@H](O)C[C@@H]4C[C@H](O)CC[C@]4(C)[C@H]3CC[C@]12C` [ursodeoxycholic acid], the “k' factor value” is reported as 4.7.
